Data reported in patent US7273949B2, “Salts and methods for their preparation” (Halliburton Energy Services, Inc., priority 2005, dated 2007).

Columns and labels:
skeletonema costatum = test: Toxicity to algae, ISO 10253 (HOCNF); assay type: in vivo
Source text: (§1) According to still other embodiments described herein, a disulfonate salt of 2,4-pentanedione is provided. According to one such embodiment, the salt comprises 2,4-pentanedione-1,5-sodium disulfonate. According to another such embodiment, a disulfonate salt of 2,4-pentanedione has an environmentally acceptable toxicity. As used herein, the term “environmentally acceptable toxicity” means that, when tested according to procedures that are the same as or equivalent to those set forth by the OSPAR Guidelines for Completing the Harmonised Offshore Chemical Notification Format (HOCNF) (References number: 2003-1) that were in effect on Dec. 31, 2004, the salt is determined to have a toxicity of greater than about 10,000 mg/L for an algae (skeletonema costatum), a crustacean (acartia tonsa), a fish (scopthalmus) and a sediment reworker (corophium volutator). […]
(§2) In this Example 3, the toxicity results for the skeletonema costatum were determined according to ISO (International Organization for Standardization) 10253, the protocol for which is known to those of ordinary skill in the art, and is also the protocol required under the above-referenced HOCNF Guidelines. The toxicity results for the acartia tonsa were determined according to ISO 14669, the protocol for which is known to those of ordinary skill in the art. […]

acartia tonsa = test: Toxicity to crustacean, ISO 14669; assay type: in vivo
Source text: as §1, §2

scopthalmus = test: Toxicity to fish, Part B of the OSPAR Protocols; assay type: in vivo
Source text: as §1, §2

corophium volutator = test: Toxicity to sediment reworker, Part B of the OSPAR Protocols; assay type: in vivo
Source text: as §1, §2

[1] = Solubility of the salt compared to the free acid (methanol rinse); assay type: physicochemical
Source text: The neutralized product is then rinsed with a rinsing agent, for example, methanol, to remove other acid by-products, such as hydrochloric and sulfuric acids, and/or mono-sulfonic acids, and/or to remove other salts formed by the neutralization, such as salts of hydrochloric and sulfuric acids, and/or mono-sulfonic acids. It was discovered that […] solvents, such as methanol, would remove the by-product acids and/or salts, while leaving the salt of 2,4-pentanedione-1,5 disulfonic acid primarily undissolved.
The neutralized product was then rinsed several times with methanol to remove by-product acids, or any salts formed therefrom, while leaving the 2,4-pentanedione-1,5-sodium disulfonate primarily undissolved. […] The rinsed product was dried in a vacuum oven and filtered through a 300 mesh screen to afford a flowing pale orange/red powder. The resulting powder was 2,4-pentanedione-1,5-sodium disulfonate.

O=C(CC(=O)CS(=O)(=O)[O-])CS(=O)(=O)[O-].[Na+].[Na+] [2,4-pentanedione-1,5-sodium disulfonate]
toxicity (amount required to kill or incapacitate half the test population) (skeletonema costatum): greater than 10,000 mg/L | toxicity (amount required to kill or incapacitate half the test population) (acartia tonsa): greater than 10,000 mg/L | toxicity (amount required to kill or incapacitate half the test population) (scopthalmus): greater than 10,000 mg/L | toxicity (amount required to kill or incapacitate half the test population) (corophium volutator): greater than 10,000 mg/L | solubility compared to the 2,4-pentanedione-1,5-disulfonic free acid [1]: significantly less soluble
